Literature values as cited in patent US4181677A, “2-Benzoyl-3-alkoxy-2-alkenonitriles” (American Cyanamid Company, priority 1978, dated 1980).

System: joint and bone deterioration
Conditions: S. Wong et al. (1973); G. R. Bobalick et al. (1974)

SMILES: COc1ccc2c(c1)c(CC(=O)O)c(C)n2C(=O)c1ccc(Cl)cc1 [Indomethacin]
- prevention of joint and bone deterioration: prevent joint and bone deterioration
